Patent US8575116B1, “Polyacetylenic compounds for protecting against pancreatic islet atrophy” (Academia Sinica, priority 2010, dated 2013)

Tests used:
[1] = system: db/db mice; assay: Blood glucose after a single oral dose in fed diabetic db/db mice; type: in vivo, mouse; conditions: for postprandial blood glucose levels, effect in words: single dose, cytopiloyne 0.1, 0.5 and 2.5 mgkg^−1, glimepiride 2.5 mgkg^−1, diabetic db/db mice; for Blood glucose level: fed db/db mice
Protocol: (§1) After 0.5 h, the levels of postprandial blood sugar and insulin from the mice were monitored for additional 4 h. For continued administration, diabetic db/db males were grouped and tube-fed with vehicle, cytopiloyne (0.5 or 2.5 mgkg^−1 day^−1) or glimepiride (2.5 mg kg^−1 day^−1) for the indicated time, while levels of blood sugar, insulin, and glycosylated HbA1c, and glucose tolerance in these mice were determined. To evaluate the prophylaxis of diabetes, diabetes-free db/db mice at 4 weeks of age were tube-fed with vehicle or cytopiloyne (CP, 0.5 mgkg^−1), once a day, for 4 weeks. Unless indicated otherwise, the mice were fasted for 16 h, then Postprandial blood glucose and insulin in these mice were measured.
(§2) Glucose levels in mouse blood samples were measured using an Elite® glucometer (Bayer, Pittsburgh, Pa., USA). Insulin levels in blood samples or islet cell supernatants were determined by ELISA assays (Mercodia, Uppsala, Sweden). The levels of glycosylated HbA1c in mouse blood samples were measured using DCA 2000 analyzer (Bayer, Pittsburgh, Pa., USA).
Diabetic db/db mice aged 6 to 8 weeks were grouped, fasted for 12 h, allowed free access to food for 2 h, and removed from food. One half hour after food removal was set as time 0. Postprandial blood was collected from the tail vein of the mice, tube-fed with vehicle, glimepiride (GLM) at 2.5 mg/kg/day and cytopiloyne (CP) at 0.1, 0.5 and 2.5 mg/kg/day. Blood samples were collected at the indicated time intervals (0, 1, 2 and 4 h). The blood glucose levels were determined using a glucometer. The number of mice tested (n) is indicated in parentheses in the first column.

[2] = system: db/db mice; assay: Blood insulin after a single oral dose in fed diabetic db/db mice; type: in vivo, mouse; conditions: for blood insulin levels compared to vehicle, effect in words: single dose, db/db mice; for Blood insulin level: fed db/db mice
Protocol: as §1, §2
The same procedure as Table 1 was performed. Blood samples at the indicated time interval (0, 0.5, 1, 2, and 4 h) were collected from the retro-orbital vein of those mice and the insulin levels in each blood sample were determined using ELISA kits. The number of mice used (n) is indicated in parentheses in the first column.

[3] = system: db/db mice; assay: Glycosylated HbA1c in db/db mice after long-term treatment; type: in vivo, mouse
Protocol: FIGS. 1A-F show the anti-diabetic effects of cytopiloyne in db/db mice during long-term treatment. (A) Chemical structure of cytopiloyne (2-β-D-glucopyranosyloxy-1-hydroxytrideca-5,7,9,11-tetrayne). (B) Four groups of 6-to-8-week-old diabetic db/db mice were tube-fed with vehicle, cytopiloyne (CP, 0.5 and 2.5 mgkg^−1 day^−1) or glimepiride (GLM, 2.5 mgkg^−1 day^−1) from 0 to 42 days post-treatment. Blood glucose (BG) levels in these mice were measured. (C) Blood insulin levels from the mice of FIG. 1B. (D) IPGTT was performed in the db/db mice of FIG. 1B on day 0, 28 and 42, and blood glucose levels were monitored for 3.5 h. (E) The percentage of glycosylated HbAlc of whole blood from the mice of FIG. 1B on day 0 and 42. (F) Pancreata of 8- and 16-week-old db/db males, which had received the same treatment as FIG. 1B for 2 (images a-h) and 10 (images i-p) weeks, were stained with hematoxylin and eosin (H&E, images a, c, e, g, i, k, m and o) or hematoxylin and anti-insulin (H&I, images b, d, f, h, j, l, n and p). The arrowheads indicate pancreatic islets. Scale bars, 200 μm. Results from 3 independent experiments are expressed as mean±SEM, and P<0.05 was considered to be statistically significant (*). The number of mice (n) is indicated in parentheses.
as §1, §2

[4] = system: STZ-treated C57BL mice; assay: Insulin sensitizer test: oral dose before insulin injection in STZ-treated C57BL mice; type: in vivo, mouse; conditions: cytopiloyne 0.5 and 2.5, glimepiride 2.5, metformin 60 mgkg^−1 oral; insulin 2.5 IUkg^−1
Protocol: FIGS. 3A-C show cytopiloyne-mediated insulin release depends on pancreatic islet cells. (A) Rat pancreatic islet cells were incubated with glucose-free KRB buffer containing vehicle or cytopiloyne at 1.5, 3, 7, 14, 28 and 42 μM (FIG. 3A-i). Similarly, rat pancreatic islet cells were incubated with KRB buffer containing vehicle, glimepiride (GLM, 10 μM) or cytopiloyne at 1.5, 3, 7, 14, 28 and 42 μM in the presence of 3.3 mM glucose (LG, FIG. 3A-ii) or 16.7 mM glucose (HG, FIG. 3A-iii). The insulin levels were determined using an insulin ELISA kit. The data presented as mean±SEM of 3 independent experiments. (B) Fed C57BL mice, which had already received an injection of STZ, were administered with an oral dose of vehicle, cytopiloyne (CP, 0.1, 0.5 and 2.5 mgkg^−1), and an intraperitoneal injection of insulin (Ins, 2.5 IUkg^−1). Blood sugar levels in the STZ-treated mice were determined using a glucometer. (C) C57BL mice, which had already received STZ, were orally administered with a single dose of vehicle, cytopiloyne (CP, 0.5 and 2.5 mgkg^−1), glimepiride (GLM, 2.5 mgkg^−1), or metformin (60 mgkg^−1), followed by an intraperitoneal injection with insulin (Ins). Blood sugar levels in the STZ-treated mice were determined using a glucometer. All the results from 3 independent experiments are expressed as mean±SEM, and P<0.05 was considered to be statistically significant (*). The number of mice (n) is indicated in parentheses.
To deplete pancreatic β-cells in mice, 6-week-old C57BL females (NLAC, Taipei, Taiwan) were intraperitoneally injected with STZ at 200 mgkg^−1. STZ-treated females with postprandial blood sugar over 500 mgdl^−1 were grouped. […] Blood glucose levels were monitored for 4 h. To distinguish sensitizer activity from releaser activity of cytopiloyne, STZ-treated C57BL mice were tube-fed with vehicle, glimepiride (2.5 mgkg^−1), metformin (60 mgkg^−1) or cytopiloyne (0.5 and 2.5 mgkg^−1) 1 h before insulin injection (2.5 IUkg^−1). Blood glucose levels in the mice were monitored from 0 to 4 h after insulin injection.

[5] = system: insulin mRNA in rat primary pancreatic islet cells; assay: Real-time RT-PCR of insulin mRNA relative to L13 in rat pancreatic islet cells; type: cell-based
[6] = system: adiponectin; assay: Real-time RT-PCR of adiponectin mRNA relative to GAPDH in 3T3-L1 cells; type: cell-based, mouse
[7] = single oral dose 0.1 mg/kg, 0 h
[8] = single oral dose 0.1 mg/kg, 1 h
[9] = single oral dose 0.1 mg/kg, 2 h
[10] = single oral dose 0.1 mg/kg, 4 h
[11] = single oral dose 0.5 mg/kg, 0 h
[12] = single oral dose 0.5 mg/kg, 1 h
[13] = single oral dose 0.5 mg/kg, 2 h
[14] = single oral dose 0.5 mg/kg, 4 h
[15] = single oral dose 2.5 mg/kg, 0 h
[16] = single oral dose 2.5 mg/kg, 1 h
[17] = single oral dose 2.5 mg/kg, 2 h
[18] = single oral dose 2.5 mg/kg, 4 h
[19] = single oral dose 2.5 mg/kg, 0.5 h
[20] = 2.5 mgkg^−1 day^−1, day 42, db/db mice 12 to 14 weeks of age (untreated 7.3%)
[21] = 2.5 mgkg^−1 day^−1, versus untreated db/db mice

Q: What does the source list for `CC#CC#CC#CC#CCCC(CO)O[C@@H]1O[C@H](CO)[C@@H](O)[C@H](O)[C@H]1O` (stereo partly drawn) [cytopiloyne, 2-β-D-glucopyranosyloxy-1-hydroxytrideca-5,7,9,11-tetrayne]?
A: postprandial blood glucose levels, effect in words [1]: significantly reduced postprandial blood glucose levels; Blood glucose level [1, 7]: 373 ± 6 mg/dL; Blood glucose level [1, 8]: 267 ± 12 mg/dL; Blood glucose level [1, 9]: 204 ± 17 mg/dL; Blood glucose level [1, 10]: 158 ± 18 mg/dL; Blood glucose level [1, 11]: 369 ± 27 mg/dL; Blood glucose level [1, 12]: 214 ± 15 mg/dL; Blood glucose level [1, 13]: 163 ± 8 mg/dL; Blood glucose level [1, 14]: 132 ± 11 mg/dL; Blood glucose level [1, 15]: 365 ± 9 mg/dL; Blood glucose level [1, 16]: 207 ± 11 mg/dL; Blood glucose level [1, 17]: 147 ± 12 mg/dL; Blood glucose level [1, 18]: 129 ± 11 mg/dL; blood insulin levels compared to vehicle, effect in words [2]: significantly elevated the blood insulin levels; Blood insulin level [2, 7]: 17.2 ± 4.7 µg/L; Blood insulin level ([2]; single oral dose 0.1 mg/kg, 0.5 h): 21.0 ± 1.3 µg/L; Blood insulin level [2, 8]: 15.5 ± 0.6 µg/L; Blood insulin level [2, 9]: 14.1 ± 0.5 µg/L; Blood insulin level [2, 10]: 9.7 ± 1.3 µg/L; Blood insulin level [2, 11]: 15.7 ± 1.9 µg/L; Blood insulin level ([2]; single oral dose 0.5 mg/kg, 0.5 h): 22.6 ± 1.9 µg/L; Blood insulin level [2, 12]: 16.0 ± 2.4 µg/L; Blood insulin level [2, 13]: 12.8 ± 0.7 µg/L; Blood insulin level [2, 14]: 12.2 ± 1.9 µg/L; Blood insulin level [2, 15]: 12.5 ± 1.2 µg/L; Blood insulin level [2, 19]: 25.5 ± 1.2 µg/L; Blood insulin level [2, 16]: 18.9 ± 3.3 µg/L; Blood insulin level [2, 17]: 17.6 ± 1.7 µg/L; Blood insulin level [2, 18]: 8.9 ± 2.1 µg/L; HbA1c glycosylated in the blood ([3]; 0.5 mgkg^−1 day^−1, day 42, db/db mice 12 to 14 weeks of age (untreated 7.3%)): 6%; decrease of glycosylated HbA1c ([3]; 0.5 mgkg^−1 day^−1, versus untreated db/db mice): 1.3%; HbA1c glycosylated in the blood [3, 20]: 5.6%; decrease of glycosylated HbA1c [3, 21]: 1.7%; blood sugar lowering when dosed 60 min before insulin injection [4]: little, if any, lowering effect on blood sugar; up-regulation of insulin transcription relative to that by 16.7 mM glucose ([5]; 28 μM (FIGS. 4A-B)): 40%; insulin mRNA relative to L13 mRNA, fold ([5]; 28 μM, rat islet cells, 24 h): around 2 times; adiponectin expression ([6]; 5, 25 and 50 μM, 3T3-L1 cells): slight reduction in adiponectin expression

Q: For `CCC1=C(C)CN(C(=O)NCCc2ccc(S(=O)(=O)NC(=O)N[C@H]3CC[C@H](C)CC3)cc2)C1=O` [glimepiride, reference compound], which “postprandial blood glucose levels, effect in words” value [1] is on record?
A: The value was “significantly reduced postprandial blood glucose levels”.

Q: And the Blood glucose level [1, 15]?
A: Its Blood glucose level is 378 ± 9 mg/dL.

Q: What about the Blood glucose level [1, 16] of the same molecule?
A: Its Blood glucose level is 237 ± 16 mg/dL.

Q: And the Blood glucose level [1, 17]?
A: The Blood glucose level was 178 ± 20 mg/dL.

Q: What about the Blood glucose level [1, 18] of the same molecule?
A: The Blood glucose level was 187 ± 6 mg/dL.

Q: And the “blood insulin levels compared to vehicle, effect in words” value [2]?
A: Its value is “significantly elevated the blood insulin levels”.

Q: What about the Blood insulin level [2, 15] of the same molecule?
A: Its Blood insulin level is 13.9 ± 1.2 µg/L.

Q: And the Blood insulin level [2, 19]?
A: Its Blood insulin level is 19.3 ± 4.2 µg/L.

Q: And the Blood insulin level [2, 16]?
A: The Blood insulin level was 26.3 ± 3.3 µg/L.

Q: What about the Blood insulin level [2, 17] of the same molecule?
A: Its Blood insulin level is 15.9 ± 1.7 µg/L.

Q: What about the Blood insulin level [2, 18] of the same molecule?
A: The Blood insulin level was 11.8 ± 2.1 µg/L.

Q: And the “HbA1c glycosylated in the blood” value [3, 20]?
A: Its value is 6.3%.

Q: And the “decrease of glycosylated HbA1c” value [3, 21]?
A: Its value is 1%.

Q: What about the “blood sugar lowering when dosed 60 min before insulin injection” value [4] of the same molecule?
A: Its value is “little, if any, lowering effect on blood sugar”.

Q: What about the “insulin mRNA relative to L13 mRNA” value ([5]; 10 μM, rat islet cells, 24 h) of the same molecule?
A: Its value is “slightly decreased insulin transcription”.

Q: And the “adiponectin expression level, times control levels” value ([6]; mouse, 8 days, 10 μM)?
A: The value was 9 times.
